One series concerns the target human MC4R (Homo sapiens, UniProt P32245). Briefly: Reporter Gene Assay (CHO-6×CRE-luc+ reporter cell lines, luciferase). Format: cell-based. As to conditions: for EC50: CHO-6×CRE-luc+ reporter cells expressing human MC4R, 4 h at 37° C., luciferase activity; for % of MSH / Emax: percentage of the fold stimulation in the NDP-αMSH control (1×10^−7 M NDP-αMSH), CHO-6×CRE-luc+ cells, human MC4R; for Emax: 4 h, read-out: % of MSH. On the procedure: Reporter Gene Assay CHO-6×CRE-luc^+ reporter cell lines expressing human MC1R, MC3R, MC4R, and MC5R (GenBank accession numbers X65634, LO6155, S77415 and U08353) and the CHO host reporter gene cell line were propagated in complete medium in T225 flasks. Forty-eight hours prior to assay, cells were harvested with 2 ml of 0.05% trypsin, washed with complete medium and plated at a concentration of 4000 cells/well in complete medium. Sixteen hours prior to the assay, the medium was removed from the cells and replaced with 90 μl/well of serum-free DMEM/F12. At the time of the assay the compounds were added in a 10 μl volume and plates were incubated for 4 h at 37° C. in a cell culture incubator. The medium was aspirated followed by the addition of 50 μl of a 1:1 mixture of LucLiteTM and dPBS containing 1 mM CaCl2 and 1 mM MgCl2. The plates were then sealed and subjected to dark adaptation at room temperature for 10 min before luciferase activity was quantitated on a TopCountTM microplate scintillation counter (Packard) using 3 s/well count time. The NDP-αMSH and […]-5 concentration-response curve data were expressed as a percentage of the fold stimulation in the NDP-αMSH control for each receptor subtype. The control value is the average of duplicate wells treated with 1×10^-7 M NDP-αMSH.
Background: A reporter such as luciferase makes a cellular process visible.

The values that follow come from US7169773B2, “Compounds” (SmithKline Beecham Corporation, priority 2004, dated 2007).

Sequence of human MC4R (P32245 whole entry): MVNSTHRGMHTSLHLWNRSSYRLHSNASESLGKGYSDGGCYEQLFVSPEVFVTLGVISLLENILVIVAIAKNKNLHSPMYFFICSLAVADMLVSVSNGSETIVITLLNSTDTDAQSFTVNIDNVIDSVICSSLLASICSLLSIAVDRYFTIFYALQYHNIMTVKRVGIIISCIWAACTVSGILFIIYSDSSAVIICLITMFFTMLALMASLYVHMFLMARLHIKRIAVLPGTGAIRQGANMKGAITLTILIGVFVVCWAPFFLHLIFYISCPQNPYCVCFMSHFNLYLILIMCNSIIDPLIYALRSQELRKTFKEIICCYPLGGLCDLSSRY

For orientation: EC50 means the concentration at which the effect is half-maximal. A higher EC50 goes with weaker potency. As for `COc1ccc(N(C(=O)CN2C(=O)C(Cc3n[nH]c4ccccc34)(OC)C(=O)N(c3cccnc3)c3ccccc32)C(C)C)cc1` (single isomer, unassigned) [Example 9, 2-[3-(1H-indazol-3-ylmethyl)-3-methoxy-2,4-dioxo-5-pyridin-3-yl-2,3,4,5-tetrahydro-1H-1,5-benzodiazepin-1-yl]-N-isopropyl-N-(4-methoxyphenyl)acetamide], on human MC4R, the EC50 was 158 nM and the “% of MSH” value was determined as 68%.

In the case of `COc1cccc2c1CCCCN2C(=O)CN1C(=O)[C@@H](Cc2n[nH]c3c2CCCC3)C(=O)N(c2ccccc2)c2ccccc21` [Example 7, (3R)-1-[2-(6-methoxy-2,3,4,5-tetrahydro-1H-1-benzazepin-1-yl)-2-oxoethyl]-5-phenyl-3-(4,5,6,7-tetrahydro-1H-indazol-3-ylmethyl)-1H-1,5-benzodiazepine-2,4(3H,5H)-dione], at human MC4R, the Emax came to 41% and the EC50 was 158 nM.

A word on the melting point: it is the temperature, or range, at which the solid turns liquid. The compound `COc1cccc2c1CCCCN2C(=O)CN1C(=O)[C@@H](Cc2n[nH]c3ccccc23)C(=O)N(c2ccccc2)c2ccccc21` [Example 5, (3R)-3-(1H-indazol-3-ylmethyl)-1-[2-(6-methoxy-2,3,4,5-tetrahydro-1H-1-benzazepin-1-yl)-2-oxoethyl]-5-phenyl-1H-1,5-benzodiazepine-2,4(3H,5H)-dione] gave a melting point of 186 to 214 °C. At human MC4R, the Emax is 44% and a half-maximal response (EC50) required 282 nM.

For the compound `O=C(CN1C(=O)C(Cc2n[nH]c3ccccc23)C(=O)N(c2ccccc2)c2ccccc21)N1CCCCc2ccccc21` (racemic) [Example 1, 3-(1H-indazol-3-ylmethyl)-1-[2-oxo-2-(2,3,4,5-tetrahydro-1H-1-benzazepin-1-yl)ethyl]-5-phenyl-1H-1,5-benzodiazepine-2,4(3H,5H)-dione], at human MC4R, the Emax came out at 60% and a half-maximal response (EC50) required 309 nM.

Regarding `COc1ccc2c(c1)CCCCN2C(=O)CN1C(=O)C(Cc2n[nH]c3ccccc23)C(=O)N(c2ccccc2)c2ccccc21` (centres unmarked) [Example 2, 3-(1H-indazol-3-ylmethyl)-1-[2-(7-methoxy-2,3,4,5-tetrahydro-1H-1-benzazepin-1-yl)-2-oxoethyl]-5-phenyl-1H-1,5-benzodiazepine-2,4(3H,5H)-dione], the melting point lay in the range of 215 to 230 °C. Moreover, on human MC4R, the Emax was determined as 42% and the EC50 is 288 nM.

With `COc1cccc2c1CCCCN2C(=O)CN1C(=O)C(Cc2n[nH]c3ccccc23)C(=O)N(c2ccccc2)c2ccccc21` (racemic) [Example 4, 3-(1H-indazol-3-ylmethyl)-1-[2-(6-methoxy-2,3,4,5-tetrahydro-1H-1-benzazepin-1-yl)-2-oxoethyl]-5-phenyl-1H-1,5-benzodiazepine-2,4(3H,5H)-dione], at human MC4R, the Emax turned out to be 45% and the EC50 was 178 nM.

With `COC1(Cc2n[nH]c3ccccc23)C(=O)N(CC(=O)N2CCCCc3ccccc32)c2ccccc2N(c2ccccc2)C1=O` (centres unmarked) [Example 11, 3-(1H-indazol-3-ylmethyl)-3-methoxy-1-[2-oxo-2-(2,3,4,5-tetrahydro-1H-1-benzazepin-1-yl)ethyl]-5-phenyl-1H-1,5-benzodiazepine-2,4(3H,5H)-dione], on human MC4R, the Emax is 59% and a half-maximal effect (EC50) was put at 112 nM.

For `COc1ccc(N(C(=O)CN2C(=O)C(Cc3n[nH]c4ccccc34)(OC)C(=O)N(c3cccnc3)c3ccccc32)C(C)C)cc1` (single isomer, unassigned) [Example 10, 2-[3-(1H-indazol-3-ylmethyl)-3-methoxy-2,4-dioxo-5-pyridin-3-yl-2,3,4,5-tetrahydro-1H-1,5-benzodiazepin-1-yl]-N-isopropyl-N-(4-methoxyphenyl)acetamide], at human MC4R, the midpoint of the response, the EC50, lay at 200 nM and the “% of MSH” value is 29%.

`Cc1cc(C)c2c(c1)N(C(=O)CN1C(=O)[C@@H](Cc3n[nH]c4c3CCCC4)C(=O)N(c3ccccc3)c3ccccc31)CCCC2` [Example 6, (3R)-1-[2-(6,8-dimethyl-2,3,4,5-tetrahydro-1H-1-benzazepin-1-yl)-2-oxoethyl]-5-phenyl-3-(4,5,6,7-tetrahydro-1H-indazol-3-ylmethyl)-1H-1,5-benzodiazepine-2,4(3H,5H)-dione]: on human MC4R, the Emax came to 35% and the concentration giving a half-maximal response (EC50) is 257 nM.

For `Cc1cc(C)c2c(c1)N(C(=O)CN1C(=O)C(Cc3n[nH]c4ccccc34)C(=O)N(c3ccccc3)c3ccccc31)CCCC2` (racemic) [Example 3, 1-[2-(6,8-dimethyl-2,3,4,5-tetrahydro-1H-1-benzazepin-1-yl)-2-oxoethyl]-3(1H-indazol-3-ylmethyl)-5-phenyl-1H-1,5-benzodiazepine-2,4(3H,5H)-dione], on human MC4R, the Emax worked out at 47% and the EC50 is 60.3 nM.

On to `O=C(CN1C(=O)C(Cc2n[nH]c3cc(F)ccc23)C(=O)N(c2ccccc2)c2ccccc21)N1CCCCc2ccccc21` (centres unmarked) [Example 12, 3-[(6-fluoro-1H-indazol-3-yl)methyl]-1-[2-oxo-2-(2,3,4,5-tetrahydro-1H-1-benzazepin-1-yl)ethyl]-5-phenyl-1H-1,5-benzodiazepine-2,4(3H,5H)-dione], for which, on human MC4R, the Emax was found to be 52% and the EC50 was 174 nM.

Regarding `COc1ccc(N(C(=O)CN2C(=O)C(Cc3n[nH]c4ccccc34)(OC)C(=O)N(c3cccnc3)c3ccccc32)C(C)C)cc1` (racemic) [Example 8, 2-[3-(1H-indazol-3-ylmethyl)-3-methoxy-2,4-dioxo-5-pyridin-3-yl-2,3,4,5-tetrahydro-1H-1,5-benzodiazepin-1-yl]-N-isopropyl-N-(4-methoxyphenyl)acetamide], on human MC4R, the Emax was 74% and a half-maximal response (EC50) required 251 nM.
